Values after ≈ are worked out from the molar mass of the structure shown. Like-named read-outs stand apart in the source and are kept apart here.
Assays:
Type in all cases: cell-based
A. baumannii = test: Broth dilution MIC determination (CLSI) against A. baumannii strains; settings: Acinetobacter baumannii
Method in brief: (§1)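 MICs were determined by CLSI standard broth dilution against several strains per species, including multidrug-resistant and macrolide-resistant strains. Azithromycin and solithromycin served as control compounds.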

S. pyogenes = test: Broth dilution MIC determination (CLSI) against S. pyogenes strains; settings: Streptococcus pyogenes
Method in brief: as §1

H. influenzae = test: Broth dilution MIC determination (CLSI) against H. influenzae strains; settings: Haemophilus influenzae
Description: Minimum inhibitory concentrations (MICs) for macrolides described herein have been determined for unique strains of S. aureus, S. pneumoniae, S. pyogenes, E. faecalis, E. coli, A. baumannii, K. pneumoniae, P. aeruginosa, and H. influenzae, including several multidrug-resistant strains, with a special focus on macrolide resistant mechanisms. Azithromycin and solithromycin were included as control compounds. CLSI standard procedures for broth dilution MIC determination were used. Data for exemplary compounds described herein is shown in Tables M1-M7 and in Tables N1-N4.

P. aeruginosa = test: Broth dilution MIC determination (CLSI) against P. aeruginosa strains; settings: Pseudomonas aeruginosa
Method in brief: as §1

E. faecalis = test: Broth dilution MIC determination (CLSI) against E. faecalis strains; settings: Enterococcus faecalis
Method in brief: as §1

S. aureus = test: Broth dilution MIC determination (CLSI) against S. aureus strains; settings: Staphylococcus aureus
Method in brief: as §1

S. pneumoniae = test: Broth dilution MIC determination (CLSI) against S. pneumoniae strains; settings: Streptococcus pneumoniae
Method in brief: as §1

E. coli = test: Broth dilution MIC determination (CLSI) against E. coli strains; settings: Escherichia coli
Method in brief: as §1

K. pneumoniae = test: Broth dilution MIC determination (CLSI) against K. pneumoniae strains; settings: Klebsiella pneumoniae
Method in brief: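 Azithromycin and solithromycin served as controls; MICs were obtained by standard CLSI broth dilution on a strain panel including multidrug-resistant and macrolide-resistant isolates.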

[1] = ATCC19606, ATCC19606, read-out: MIC A. baumannii ATCC19606
[2] = imipenem-resistant, read-out: MIC A. baumannii imipenem-resistant
[3] = ATCC19615, ATCC19615, read-out: MIC S. pyogenes ATCC19615
[4] = macrolide-resistant, read-out: MIC S. pyogenes macrolide-resistant
[5] = ATCC49247, ATCC49247, read-out: MIC H. influenzae ATCC49247
[6] = erythro > 4, azithro 1, read-out: MIC H. influenzae erythro > 4, azithro 1
[7] = ATCC27853, read-out: MIC P. aeruginosa ATCC27853
[8] = ATCC29212, ATCC29212, read-out: MIC E. faecalis ATCC29212
[9] = Vancomycin-resistant, read-out: MIC E. faecalis Vancomycin-resistant
[10] = ATCC29213, ATCC29213, read-out: MIC S. aureus ATCC29213
[11] = MRSA / USA100, MRSA: USA100, read-out: MIC S. aureus MRSA: USA100
[12] = MRSA / USA300, MRSA: USA300, read-out: MIC S. aureus MRSA: USA300
[13] = USA600, USA600, GISA, read-out: MIC S. aureus USA600, GISA
[14] = read-out: MIC S. aureus erm A genotype
[15] = ATCC49619, ATCC49619, read-out: MIC S. pneumoniae ATCC49619
[16] = erm B + mef A genotype, read-out: MIC S. pneumoniae erm B + mef A genotype
[17] = erm B + tet(M, O) genotype, read-out: MIC S. pneumoniae erm B + tet(M, O) genotype
[18] = read-out: MIC S. pneumoniae mef A genotype, mef A genotype
[19] = ATCC25922, ATCC25922, read-out: MIC E. coli ATCC25922
[20] = read-out: MIC E. coli NDM-1, NDM-1
[21] = ATCC10031, ATCC10031, read-out: MIC K. pneumoniae ATCC10031
[22] = KPC-2, read-out: MIC K. pneumoniae KPC-2

Compound | MIC (A. baumannii; [1]) [µg/mL] | MIC (A. baumannii; [2]) [µg/mL] | MIC (S. pyogenes; [3]) [µg/mL] | MIC (S. pyogenes; [4]) [µg/mL] | MIC (H. influenzae; [5]) [µg/mL] | MIC (H. influenzae; [6]) [µg/mL] | MIC (P. aeruginosa; [7]) [µg/mL] | MIC (E. faecalis; [8]) [µg/mL] | MIC (E. faecalis; [9]) [µg/mL] | MIC (S. aureus; [10]) [µg/mL] | MIC (S. aureus; [11]) [µg/mL] | MIC (S. aureus; [12]) [µg/mL] | MIC (S. aureus; [13]) [µg/mL] | MIC (S. aureus; [14]) [µg/mL] | MIC (S. pneumoniae; [15]) [µg/mL] | MIC (S. pneumoniae; [16]) [µg/mL] | MIC (S. pneumoniae; [17]) [µg/mL] | MIC (S. pneumoniae; [18]) [µg/mL] | MIC (E. coli; [19]) [µg/mL] | MIC (E. coli; [20]) [µg/mL] | other results
CC[C@H]1OC(=O)[C@@](C)(F)C(=O)[C@H](C)[C@@H](O[C@@H]2O[C@H](C)C[C@H](N(C)C)[C@H]2O)[C@](C)(OC)C[C@@H](C)C(=O)[C@H](C)[C@H]2N(CCCCn3cc(-c4cccc(N)c4)nn3)C(=O)O[C@]12C [Solithromycin, solithromycin, reference compound] | 8 (≈ 9.47 µM) | 4 (≈ 4.73 µM) | < 0.0312 | 0.0625 (≈ 0.074 µM) | 4 (≈ 4.73 µM) | 2 (≈ 2.37 µM) | > 32 | < 0.0312 | 32 (≈ 37.9 µM) | 0.125 (≈ 0.148 µM) | > 32 | 1 (≈ 1.18 µM) | > 32 | > 32 | < 0.0312 | 0.25 | < 0.0312 | 0.125 (≈ 0.148 µM) | 32 (≈ 37.9 µM) | > 32 | MIC (A. baumannii; IMP-4, read-out: MIC A. baumannii IMP-4): > 32 µg/mL; MIC (A. baumannii; chromosomal class C, read-out: MIC A. baumannii chromosomal class C): 8 µg/mL (≈ 9.47 µM); MIC (P. aeruginosa; read-out: MIC P. aeruginosa HPA101-1477): > 32 µg/mL; MIC (E. coli; read-out: MIC E. coli CTX-M-14, CTX-M-14): > 32 µg/mL; MIC (E. coli; read-out: MIC E. coli TEM-1, TEM-1): 32 µg/mL (≈ 37.9 µM); MIC (K. pneumoniae; [21]): 8 µg/mL (≈ 9.47 µM); MIC (K. pneumoniae; [22]): > 32 µg/mL; MIC (K. pneumoniae; SHV-12, read-out: MIC K. pneumoniae SHV-12): > 32 µg/mL; MIC (K. pneumoniae; TEM-10, read-out: MIC K. pneumoniae TEM-10): > 32 µg/mL
CC[C@H]1OC(=O)[C@H](C)C(=O)[C@H](C)[C@@H](O[C@@H]2OC(CNC(=O)CNC(C)(C)C)CC(N(C)C)C2O)[C@](C)(OC)C[C@@H](C)CN[C@H](C)[C@H]2N(CCCCn3cc(-c4cccc(N)c4)nn3)C(=O)O[C@]12C (stereo partly shown) [FSM-21879] | > 32 | > 32 | < 0.0313 | 2 (≈ 2.09 µM) | 16 (≈ 16.7 µM) | 8 (≈ 8.37 µM) | > 32 | 16 (≈ 16.7 µM) | > 32 | 32 (≈ 33.5 µM) | > 32 | > 32 | > 32 | > 32 | < 0.0313 | 1 | < 0.0313 | 4 (≈ 4.18 µM) | 32 (≈ 33.5 µM) | 32 (≈ 33.5 µM) | MIC (S. pneumoniae; read-out: MIC S. pneumoniae mef A genotype, mef A genotype, first of two such columns (c3)): 0.25 µg/mL (≈ 0.261 µM); MIC (K. pneumoniae; [21]): 8 µg/mL (≈ 8.37 µM); MIC (K. pneumoniae; [22]): > 32 µg/mL

Source: patent publication US11535643B2, “Macrolides with modified desosamine sugars and uses thereof” (President and Fellows of Harvard College, priority 2015, dated 2022)
